According to paper PMC5119973 (Cancer Medicine, 2016):

Columns and labels:
BRAF^V600E = BRAF^V600E (Homo sapiens, UniProt P15056, V600E); assay: KINOMEscan active-site competitive binding assay
[1] = Plasma pharmacokinetics in female NMRI Foxn1 nu/nu mice; conditions: for Calculated maximum free drug concentration: murine plasma
Experimental: Analyte concentrations were measured by high‐performance liquid chromatography using a Hewlett Packard 1100 Series system (Palo Alto, CA), with tandem mass spectrometric detection using an Applied Biosystems API 4000 (Thermo Fisher Scientific, Waltham, MA). The assay was validated according to the applicable guideline on method validation 11. The lower limit of quantitation for the assay was 2.00 μg/L, with a linear range of 2.00–20,000 μg/L using a sample volume of 100 μL.
Pharmacokinetic studies were performed in female NMRI Foxn1 nu/nu mice, supplied by Harlan‐Winkelmann GmbH (Borchen, Germany). […] Pharmacokinetic parameters, namely the AUC(0–24)ss and C max, were calculated from plasma concentrations using a noncompartmental analysis.

VEGFR2 [2] = target: T1, VEGFR2 (Homo sapiens, UniProt P35968); assay: KINOMEscan active-site competitive binding assay; parameters: purchased DiscoveRx; conditions: slash = two separate measurements
FLT3^N841I = target: T2, FLT3^N841I (Homo sapiens, UniProt P36888, N841I); assay: KINOMEscan active-site competitive binding assay
T2 construct: purchased DiscoveRx

KIT^A829P = target: T3, KIT^A829P (Homo sapiens, UniProt P10721, A829P); assay: KINOMEscan active-site competitive binding assay
T3 construct: purchased DiscoveRx

KIT^V559D,T670I = target: T4, KIT^V559D,T670I (Homo sapiens, UniProt P10721, T670I/V559D); assay: KINOMEscan active-site competitive binding assay
T4 construct: purchased DiscoveRx (KINOMEscan service)

VEGFR2 [3] = target: T1, VEGFR2; assay: VEGFR2 autophosphorylation in HuVECs stimulated with VEGF‐A (western blot); format: cell-based; parameters: VEGFR2 autophosphorylation in HuVECs; endogenous in cells; host or cells: HuVEC; conditions: VEGF‐A stimulation, 0.1% bovine serum albumin, estimated from western blots, read-out: Mean ± SD IC50
Experimental: (§1) Endothelial cell assays were performed as described previously 14. In brief, HuVECs and HuLECs were grown in EBM‐2 supplemented with growth factors (Lonza, Walkersville, MD). After serum starvation for 6 h in EBM‐2 containing 0.1% BSA, 2 × 10^5 cells were treated with various concentrations of each compound for 1 h before stimulation with VEGF‐A (50 ng/mL) or VEGF‐C (200 ng/mL) for 10 min. Cells were lysed, and total cell lysates were analyzed for inhibition of phosphorylation by western blot, using antibodies against total and phosphorylated VEGFR2 and VEGFR3, ERK1/2, and AKT. Signals were detected by […] luminescence (GE Healthcare Biosciences; Pittsburgh, PA).

KIT^V559D = target: T5, KIT^V559D (Homo sapiens, UniProt P10721, V559D); assay: KINOMEscan active-site competitive binding assay
T5 construct: purchased DiscoveRx (KINOMEscan service)

FGFRs = assay: KINOMEscan active-site competitive binding assay; conditions: range among family members, data not shown
KIT = KIT (Homo sapiens, UniProt P10721); assay: KINOMEscan active-site competitive binding assay; parameters: purchased DiscoveRx (KINOMEscan service); conditions: slash = two separate measurements
RET^M918T = target: T6, RET^M918T (Homo sapiens, UniProt P07949, M918T); assay: KINOMEscan active-site competitive binding assay
T6 construct: purchased DiscoveRx (KINOMEscan service)

VEGFR3 = target: T7, VEGFR3 (Homo sapiens, UniProt P35916); assay: VEGFR3 autophosphorylation in HuLECs stimulated with VEGF‐C (western blot); format: cell-based; conditions: VEGF‐C stimulation, 0.1% bovine serum albumin, estimated from western blots, read-out: Mean ± SD IC50
T7 construct: VEGFR3 autophosphorylation in HuLECs; endogenous in cells; host or cells: HuLEC
Experimental: as §1

FLT4 = target: T8, FLT4 (Homo sapiens, UniProt P35916); assay: KINOMEscan active-site competitive binding assay; conditions: slash = two separate measurements
T8 construct: purchased DiscoveRx (KINOMEscan service)

RAF1 = target: T9, RAF1 (Homo sapiens, UniProt P04049); assay: KINOMEscan active-site competitive binding assay; conditions: slash = two separate measurements
T9 construct: purchased DiscoveRx

PDGFRs = assay: KINOMEscan active-site competitive binding assay; conditions: range among family members
RET = target: T10, RET (Homo sapiens, UniProt P07949); assay: KINOMEscan active-site competitive binding assay; conditions: slash = two separate measurements
T10 construct: purchased DiscoveRx

VEGFR2 [4] = target: T1, VEGFR2; assay: VEGFR2 kinase phosphorylation assay in NIH‐3T3 cells; format: cell-based; conditions: 0.1 mg/mL human serum albumin, data not shown
Experimental: TIE‐2, wt KIT, and BRAF^V600E assays were performed by ProQinase (Freiburg, Germany). Cell lines used were Chinese hamster ovary (TIE‐2 assay), human acute megakaryoblastic leukemia cell line (M07e; wt KIT assay), and rat fibroblasts (RAT‐1; BRAF^V600E assay). VEGFR2 assays were performed in murine fibroblasts (NIH‐3T3) in the presence of 0.1 mg/mL human serum albumin. KIT^K642E assays were performed in a GIST cell line (GIST882) in the presence of 0.1 mg/mL BSA. Substrate phosphorylation was determined from total cell lysates by enzyme‐linked immunosorbent assay. In addition, an FGFR phosphorylation assay was performed using a human gastric carcinoma cell line (SNU‐16), with pFGFR assessed by western blot. The PDGFRA phosphorylation assay was performed by DiscoverRx using the DiscoverRx PathHunter cell line, modified to express PDGFRA. […] The assay signal was generated using a detection reagent cocktail and measured by chemoluminescence 13. Both the PDGFRA and FGFR assays were performed in the presence of 0.1 mg/mL BSA.

KIT^D816V = target: T11, KIT^D816V (Homo sapiens, UniProt P10721, D816V); assay: KINOMEscan active-site competitive binding assay
T11 construct: purchased DiscoveRx

KIT^K642E = target: T12, KIT^K642E (Homo sapiens, UniProt P10721, K642E); assay: Cellular kinase phosphorylation assay, GIST882/KIT^K642E; format: cell-based; conditions: GIST882/KIT^K642E cells; 0.1% bovine serum albumin; brackets = number of experiments; read-out: Mean ± SD IC50
T12 construct: KIT^K642E assays were performed in a GIST cell line (GIST882); endogenous in cells; host or cells: GIST882

RAFs = assay: KINOMEscan active-site competitive binding assay; conditions: range among family members
[5] = M‐2‐treated mice, 10 mg/kg/day oral for 5 days
[6] = after M‐2 10 mg/kg/day oral for 5 days, total = sum of molar concentrations of regorafenib, M‐2, M‐5
[7] = after regorafenib 10 mg/kg/day oral for 5 days, total = sum of molar concentrations of regorafenib, M‐2, M‐5
[8] = analyte in plasma after M‐2 10 mg/kg/day oral for 5 days
[9] = analyte in plasma after M‐2 10 mg/kg/day oral for 5 days, AUC(0–24)ss
[10] = analyte in plasma after M‐5 10 mg/kg/day oral for 5 days
[11] = analyte in plasma after regorafenib 10 mg/kg/day oral for 5 days
[12] = analyte in plasma after regorafenib 10 mg/kg/day oral for 5 days, AUC(0–24)ss
[13] = regorafenib‐treated mice, 10 mg/kg/day oral for 5 days
[14] = after the labelled (administered) compound, 10 mg/kg/day oral for 5 days

T1 sequence (P35968 20-1356): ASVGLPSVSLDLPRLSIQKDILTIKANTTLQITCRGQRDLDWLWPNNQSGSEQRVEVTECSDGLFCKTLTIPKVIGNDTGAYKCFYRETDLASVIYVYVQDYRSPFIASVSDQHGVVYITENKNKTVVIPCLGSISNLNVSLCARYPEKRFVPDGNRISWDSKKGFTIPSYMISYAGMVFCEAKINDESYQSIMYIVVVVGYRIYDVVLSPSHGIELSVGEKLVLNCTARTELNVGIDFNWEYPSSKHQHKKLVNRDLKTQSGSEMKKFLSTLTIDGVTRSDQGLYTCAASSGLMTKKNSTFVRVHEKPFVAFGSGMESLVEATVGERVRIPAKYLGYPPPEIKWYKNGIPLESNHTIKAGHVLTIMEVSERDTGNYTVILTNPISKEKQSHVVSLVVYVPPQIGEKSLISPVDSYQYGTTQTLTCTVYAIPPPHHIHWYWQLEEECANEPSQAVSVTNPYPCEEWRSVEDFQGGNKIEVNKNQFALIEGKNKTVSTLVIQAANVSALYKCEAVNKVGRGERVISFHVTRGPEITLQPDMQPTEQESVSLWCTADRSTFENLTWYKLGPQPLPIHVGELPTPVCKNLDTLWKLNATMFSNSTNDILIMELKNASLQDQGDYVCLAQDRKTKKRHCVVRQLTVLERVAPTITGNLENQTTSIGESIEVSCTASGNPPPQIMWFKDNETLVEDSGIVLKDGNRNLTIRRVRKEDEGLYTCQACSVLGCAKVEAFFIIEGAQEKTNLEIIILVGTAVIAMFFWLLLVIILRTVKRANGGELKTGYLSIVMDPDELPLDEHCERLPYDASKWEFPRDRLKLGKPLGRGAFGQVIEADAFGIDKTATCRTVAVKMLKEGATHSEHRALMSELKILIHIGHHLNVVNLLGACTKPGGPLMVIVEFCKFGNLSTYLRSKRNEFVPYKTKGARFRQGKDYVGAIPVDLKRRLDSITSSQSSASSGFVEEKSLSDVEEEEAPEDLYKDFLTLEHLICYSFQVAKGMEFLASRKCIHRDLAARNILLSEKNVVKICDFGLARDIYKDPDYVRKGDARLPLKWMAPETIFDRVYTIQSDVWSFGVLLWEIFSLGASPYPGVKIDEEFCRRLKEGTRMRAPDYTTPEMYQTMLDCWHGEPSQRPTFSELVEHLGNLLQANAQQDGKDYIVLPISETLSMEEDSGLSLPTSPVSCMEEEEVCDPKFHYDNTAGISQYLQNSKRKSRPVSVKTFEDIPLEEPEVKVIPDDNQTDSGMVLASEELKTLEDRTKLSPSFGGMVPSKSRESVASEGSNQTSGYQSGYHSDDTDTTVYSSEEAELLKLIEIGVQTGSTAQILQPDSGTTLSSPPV
Sequence of BRAF^V600E (P15056 whole entry V600E): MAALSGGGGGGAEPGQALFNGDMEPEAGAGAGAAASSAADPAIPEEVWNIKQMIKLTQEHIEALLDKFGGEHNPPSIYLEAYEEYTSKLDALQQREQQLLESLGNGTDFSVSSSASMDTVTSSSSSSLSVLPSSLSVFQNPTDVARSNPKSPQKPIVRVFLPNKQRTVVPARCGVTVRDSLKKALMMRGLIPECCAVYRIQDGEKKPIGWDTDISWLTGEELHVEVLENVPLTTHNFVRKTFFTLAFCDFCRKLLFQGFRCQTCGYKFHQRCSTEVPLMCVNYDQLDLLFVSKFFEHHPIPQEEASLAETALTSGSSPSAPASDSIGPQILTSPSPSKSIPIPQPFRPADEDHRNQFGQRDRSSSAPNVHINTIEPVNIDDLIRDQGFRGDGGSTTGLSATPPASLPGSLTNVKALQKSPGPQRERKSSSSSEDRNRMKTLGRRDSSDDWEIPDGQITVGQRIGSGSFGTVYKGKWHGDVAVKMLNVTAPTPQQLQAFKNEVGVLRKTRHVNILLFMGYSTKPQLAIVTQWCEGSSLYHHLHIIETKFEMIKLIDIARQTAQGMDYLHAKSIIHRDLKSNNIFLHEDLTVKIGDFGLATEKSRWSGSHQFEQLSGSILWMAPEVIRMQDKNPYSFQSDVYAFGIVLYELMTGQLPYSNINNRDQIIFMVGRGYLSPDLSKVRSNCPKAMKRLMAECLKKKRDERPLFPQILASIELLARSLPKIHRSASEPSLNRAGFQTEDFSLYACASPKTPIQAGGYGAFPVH
T4 sequence (P10721 26-976 V559D/T670I): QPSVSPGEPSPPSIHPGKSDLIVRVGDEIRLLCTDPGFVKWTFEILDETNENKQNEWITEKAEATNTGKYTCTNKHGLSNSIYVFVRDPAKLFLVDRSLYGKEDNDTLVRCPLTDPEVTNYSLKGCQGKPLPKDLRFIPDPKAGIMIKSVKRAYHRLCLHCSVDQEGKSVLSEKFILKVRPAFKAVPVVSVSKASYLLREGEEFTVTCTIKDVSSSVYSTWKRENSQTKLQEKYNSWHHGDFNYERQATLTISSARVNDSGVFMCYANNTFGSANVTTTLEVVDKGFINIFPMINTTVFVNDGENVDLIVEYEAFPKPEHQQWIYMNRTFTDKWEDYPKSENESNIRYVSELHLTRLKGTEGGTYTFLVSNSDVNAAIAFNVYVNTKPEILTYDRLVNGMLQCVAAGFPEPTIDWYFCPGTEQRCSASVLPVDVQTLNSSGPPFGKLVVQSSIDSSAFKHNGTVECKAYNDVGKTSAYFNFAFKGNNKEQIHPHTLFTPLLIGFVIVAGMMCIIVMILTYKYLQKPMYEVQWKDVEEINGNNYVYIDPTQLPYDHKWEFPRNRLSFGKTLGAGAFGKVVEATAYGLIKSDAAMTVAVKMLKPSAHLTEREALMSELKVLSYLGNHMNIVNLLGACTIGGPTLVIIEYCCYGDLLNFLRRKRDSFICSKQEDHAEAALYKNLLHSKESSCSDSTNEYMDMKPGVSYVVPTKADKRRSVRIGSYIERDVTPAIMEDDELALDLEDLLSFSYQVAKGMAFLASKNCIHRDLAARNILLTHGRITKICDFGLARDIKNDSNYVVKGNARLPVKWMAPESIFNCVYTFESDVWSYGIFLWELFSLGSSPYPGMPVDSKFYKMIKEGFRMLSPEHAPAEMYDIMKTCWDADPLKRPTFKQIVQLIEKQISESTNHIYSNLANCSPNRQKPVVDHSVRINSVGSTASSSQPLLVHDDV
T10 sequence (P07949 29-1114): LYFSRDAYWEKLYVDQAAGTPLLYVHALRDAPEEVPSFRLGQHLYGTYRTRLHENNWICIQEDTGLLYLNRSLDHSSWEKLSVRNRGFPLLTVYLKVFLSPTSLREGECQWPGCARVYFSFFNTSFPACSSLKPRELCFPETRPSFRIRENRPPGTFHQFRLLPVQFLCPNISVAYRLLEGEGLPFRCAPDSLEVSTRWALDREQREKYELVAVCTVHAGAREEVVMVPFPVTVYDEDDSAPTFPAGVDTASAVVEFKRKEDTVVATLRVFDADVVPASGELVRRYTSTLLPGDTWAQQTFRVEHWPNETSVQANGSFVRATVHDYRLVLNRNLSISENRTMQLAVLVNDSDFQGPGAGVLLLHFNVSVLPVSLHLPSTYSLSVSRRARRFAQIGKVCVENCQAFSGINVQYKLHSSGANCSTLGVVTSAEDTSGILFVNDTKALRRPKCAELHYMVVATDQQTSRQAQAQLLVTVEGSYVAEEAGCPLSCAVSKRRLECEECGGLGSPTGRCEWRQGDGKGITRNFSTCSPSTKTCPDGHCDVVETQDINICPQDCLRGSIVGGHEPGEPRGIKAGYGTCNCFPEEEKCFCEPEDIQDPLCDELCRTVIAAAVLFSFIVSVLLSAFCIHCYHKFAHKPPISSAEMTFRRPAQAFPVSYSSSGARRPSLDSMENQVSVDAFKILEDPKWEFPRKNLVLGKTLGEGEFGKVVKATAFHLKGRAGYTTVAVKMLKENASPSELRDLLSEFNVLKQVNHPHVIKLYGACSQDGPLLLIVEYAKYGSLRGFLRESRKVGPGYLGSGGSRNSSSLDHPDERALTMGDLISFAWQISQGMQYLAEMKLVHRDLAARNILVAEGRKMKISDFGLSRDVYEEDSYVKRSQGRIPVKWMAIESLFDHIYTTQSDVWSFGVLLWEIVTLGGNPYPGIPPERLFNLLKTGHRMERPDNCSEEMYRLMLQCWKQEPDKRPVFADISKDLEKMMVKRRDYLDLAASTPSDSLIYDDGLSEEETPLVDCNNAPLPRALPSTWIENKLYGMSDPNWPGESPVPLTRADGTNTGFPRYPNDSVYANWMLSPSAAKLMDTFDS
Sequence of KIT (P10721 26-976): as the sequence (P10721 26-976 V559D/T670I) above, with D534V, I645T counted along it
T9 sequence (P04049 whole entry): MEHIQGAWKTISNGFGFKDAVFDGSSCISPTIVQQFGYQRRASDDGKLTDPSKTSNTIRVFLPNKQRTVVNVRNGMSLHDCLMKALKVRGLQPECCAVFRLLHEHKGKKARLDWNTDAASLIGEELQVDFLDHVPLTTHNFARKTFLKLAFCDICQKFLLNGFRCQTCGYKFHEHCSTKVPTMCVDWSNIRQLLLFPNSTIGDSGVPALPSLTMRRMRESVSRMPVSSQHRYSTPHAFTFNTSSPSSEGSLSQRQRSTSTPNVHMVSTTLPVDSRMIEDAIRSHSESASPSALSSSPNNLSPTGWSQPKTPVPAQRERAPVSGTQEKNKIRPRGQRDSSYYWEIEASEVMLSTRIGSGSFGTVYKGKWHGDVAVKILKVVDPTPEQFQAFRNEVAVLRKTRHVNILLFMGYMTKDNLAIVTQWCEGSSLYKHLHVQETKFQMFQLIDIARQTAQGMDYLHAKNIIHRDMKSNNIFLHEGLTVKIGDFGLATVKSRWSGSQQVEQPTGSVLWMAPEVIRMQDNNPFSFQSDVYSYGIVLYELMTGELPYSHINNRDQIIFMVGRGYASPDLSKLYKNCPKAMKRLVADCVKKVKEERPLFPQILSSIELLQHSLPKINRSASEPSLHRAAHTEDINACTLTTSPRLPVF
T6 sequence (P07949 29-1114 M918T): as the sequence (P07949 29-1114) above, with M890T counted along it
T11 sequence (P10721 26-976 D816V): as the sequence (P10721 26-976 V559D/T670I) above, with D534V, I645T, D791V counted along it
T3 sequence (P10721 26-976 A829P): as the sequence (P10721 26-976 V559D/T670I) above, with D534V, I645T, A804P counted along it
T5 sequence (P10721 26-976 V559D): as the sequence (P10721 26-976 V559D/T670I) above, with I645T counted along it
T12 sequence (P10721 26-976 K642E): as the sequence (P10721 26-976 V559D/T670I) above, with D534V, K617E, I645T counted along it

SMILES	Kd (BRAF^V600E)	Share of total exposure (sum of total AUC(0–24)ss) [1, 5]	AUC (% of total) [1, 6]	AUC (% of total) [1, 7]	AUC [1, 8]	C max [1, 8]	Cmax [1, 8]	AUC [1, 9]	AUC [1, 11]	C max [1, 11]	Cmax [1, 11]	AUC [1, 12]	Calculated maximum free drug concentration [1]	Share of total exposure (sum of total AUC(0–24)ss) [1, 13]	Kd (VEGFR2 [2])	Kd (FLT3^N841I)	Kd (KIT^A829P)	Kd (KIT^V559D,T670I)	IC50 (VEGFR2 [3])	Kd (KIT^V559D)	further results
NC(=O)c1cc(Oc2ccc(NC(=O)Nc3ccc(Cl)c(C(F)(F)F)c3)c(F)c2)cc[n+]1[O-] [M‐5]	11 nM	5%	5%	2%	7.0 µmol·h/L	342 µg/L	700 nM	3391 µg·h/L	1.6 µmol·h/L	63 µg/L	100 nM	772 µg·h/L	0.5 nmol/L	2%	31 nM	23 nM	19 nM	11 nM	~16 nM	9.6 nM	AUC (% of total) ([1]; after M‐5 10 mg/kg/day oral for 5 days, only M‐5 determined): 100%; AUC [1, 10]: 108.9 µmol·h/L; Cmax [1, 10]: 10900 nM; AUC ([1]; analyte in plasma after M‐5 10 mg/kg/day oral for 5 days, AUC(0–24)ss): 52,796 μg × h/L; Kd (FGFRs): 790 to 1100 nM; Kd (KIT): 5.8 nM; Kd (RET^M918T): 5.8 nM; IC50 (VEGFR3): ~16 nM; Kd (FLT4): 40 nM; Kd (RAF1): 66 nM; Kd (PDGFRs): 11 nM; Kd (RET): 5.8 nM; Inhibition of VEGFR2 activity, potency relative to regorafenib (VEGFR2 [4]): higher potency than regorafenib; Kd (KIT^D816V): 310 nM
CNC(=O)c1cc(Oc2ccc(NC(=O)Nc3ccc(Cl)c(C(F)(F)F)c3)c(F)c2)cc[n+]1[O-] [M‐2]	15 nM	78%	78%	16%	104.4 µmol·h/L	6150 µg/L	12300 nM	52,101 μg × h/L	15.0 µmol·h/L	753 µg/L	1500 nM	7490 µg·h/L	13.4 nmol/L	16%	29 nM	34 nM	19 nM	12 nM	~4 nM	12 nM	Overall total C max for all three compounds [1, 14]: about 7500 μg/L; Sum of the total AUC(0–24)ss of regorafenib, M‐2 and M‐5 [1, 14]: 67,093 μg × h/L; Kd (FGFRs): 440 to 880 nM; Kd (KIT): 9.8 nM; IC50 (KIT^K642E): 4 ± 2 nM; Kd (RET^M918T): 7.4 nM; IC50 (VEGFR3): ~4 nM; Kd (FLT4): 46 nM; Kd (RAF1): 130 nM; Kd (PDGFRs): 7.3 to 11 nM; Kd (RAFs): 24 to 130 nM; Kd (RET): 7.6 nM; Inhibition of VEGFR2 activity, potency relative to regorafenib (VEGFR2 [4]): higher potency than regorafenib; Kd (KIT^D816V): 300 nM
